In PMC5108032, “Discovery of a Quinoline-4-carboxamide Derivative with a Novel Mechanism of Action, Multistage Antimalarial Activity, and Potent in Vivo Efficacy” (Journal of Medicinal Chemistry, 2016):

Legend:
[1] = Plasma protein binding (equilibrium dialysis); type: in vitro ADME; details: female, NMRI; mouse plasma protein binding; read-out: PPB (converted)
Experimental: by the addition of excess NADPH (8 mg/mL 50 mM potassium phosphate buffer, pH 7.4).
Immediately, at time zero, then at 3, 6, 9, 15 and 30 min an aliquot (50 μL) of the incubation mixture was removed and mixed with acetonitrile (100 μL) to stop the reaction. Internal standard was added to all samples, the samples centrifuged to sediment precipitated protein and the plates then sealed prior to UPLC-MS/MS analysis using a Quattro Premier XE (Waters Corporation, USA).
XLfit (IDBS, UK) was used to calculate the exponential decay and consequently the rate constant (k) from the ratio of peak area of test compound to internal standard at each timepoint. The rate of intrinsic clearance (CLi) of each test compound was then calculated using the following calculation:
CLi (mL/min/g liver) = k x V x Microsomal protein yield
Where V (mL/mg protein) is the incubation volume/mg protein added and microsomal protein yield is taken as 52.5 mg protein per g liver. Verapamil (0.5 µM) was used as a positive control to confirm acceptable assay performance. Experiments were performed using a single time-course experiment.
Plasma Protein Binding (PPB) experiments
This was based on a previously described method, with the exception that NMRI mouse plasma was used here.8 In brief, a 96 well equilibrium dialysis apparatus was used to determine the free fraction in plasma for each compound (HT Dialysis LLC, Gales Ferry, CT). Membranes (12-14 kDA cut-off) were conditioned in deionised water for 60 min, followed by conditioning in 80:20 deionised water:ethanol for 20 min, and then rinsed in isotonic buffer before use. Female CD1 mouse plasma was removed from the freezer and allowed to thaw on the day of experiment. Thawed plasma was then centrifuged (Allegra X12-R, Beckman Coulter, USA), spiked with test compound (final concentration 10 μg/mL), and 150 μL aliquots (n=6 replicate determinations) loaded into the 96-well equilibrium dialysis plate. Dialysis against isotonic buffer (150 µL) was carried out for 5 h in a temperature controlled incubator at ~37 °C (Barworld scientific Ltd, UK) using an orbital microplate shaker at 100 revolutions/minute (Barworld Scientific Ltd, UK). At the end of the incubation period, 50 μL aliquots of plasma or buffer were transferred to micronic tubes (Micronic B.V., the Netherlands) and the composition in each tube balanced with control fluid (50 μL), such that the volume of buffer to plasma is the same. Sample extraction was performed by the addition of 200 µL of acetonitrile containing an appropriate internal standard. Samples were allowed to mix for 1 min and then centrifuged at 3000 rpm in 96-well blocks for 15 min (Allegra X12-R, Beckman Coulter, USA) after which 150 μL of supernatant was removed to 50 μL of water. All samples were analysed by UPLC-MS/MS on a Quattro Premier XE Mass Spectrometer (Waters Corporation, USA). The unbound fraction was determined as the ratio of the peak area in buffer to that in plasma. Experiments […]
Parallel Artificial Membrane Permeability Assay (PAMPA)
PAMPA was performed using a 96-well pre-coated BD Gentest™ PAMPA plate (BD Biosciences, U.K.). Each well was divided into two chambers; donor and acceptor, separated by a lipid-oil-lipid tri-layer constructed in a porous filter. The effective permeability, Pe, of the compound was measured at pH 7.4. Stock solutions (5 mM) of the compound were prepared in DMSO. The compound was then further diluted to 10 µM in phosphate buffered saline at pH 7.4. […]

[2] = tested on: Pf (3D7); assay: Ligand efficiency metrics (LE, LLE, LELP), selectivity and fold changes; parameters: species or system Plasmodium falciparum
[3] = Rat hepatic portal vein study; type: in vivo
[4] = Experimental pKa by potentiometric titration; type: physicochemical; details: value in parentheses, read-out: R^3 group pKa, experimental
From the text: Table 4 SAR Study of the R^3 Substituent: Aromatic Groups | column: R^3 group pKa^a

fraction unbound at 5 h, 10 μg/mL [1]	hepatic extraction [3]	pKa [4]	Compound	LLE (ligand-lipophilicity efficiency) [2]	improvement / increase in potency ([2]; Pf (3D7), relative to the comparator compound of the sentence)
0.23	76%		O=C(NCCN1CCCC1)c1cc(NCCC2CCOCC2)nc2ccc(Cl)cc12 [Compound 30, 6-Chloro-N-(2-(pyrrolidin-1-yl)ethyl)-2-((2-(tetrahydro-2H-pyran-4-yl)ethyl)amino)quinoline-4-carboxamide]		
0.25			O=C(NCCN1CCCC1)c1cc(-c2ccc(S(=O)(=O)N3CCOCC3)cc2)nc2ccc(F)cc12 [Compound 38, 6-Fluoro-2-(4-(morpholinosulfonyl)phenyl)-N-(2-(pyrrolidin-1-yl)ethyl)quinoline-4-carboxamide]		
		6.3	O=C(NCCN1CCCC1)c1cc(-c2ccc(CN3CCOCC3)cc2F)nc2ccc(F)cc12 [Compound 41]		
0.44		6.3	O=C(NCCN1CCCC1)c1cc(-c2ccc(CN3CCOCC3)cc2Cl)nc2ccc(F)cc12 [Compound 42, 2-(2-Chloro-4-(morpholinomethyl)phenyl)-6-fluoro-N-(2-(pyrrolidin-1-yl)ethyl)quinoline-4-carboxamide]		

Compound	fraction unbound at 5 h, 10 μg/mL [1]	hepatic extraction [3]	pKa [4]	LLE (ligand-lipophilicity efficiency) [2]	improvement / increase in potency ([2]; Pf (3D7), relative to the comparator compound of the sentence)
O=C(NCCN1CCCC1)c1cc(NCCCN2CCOCC2)nc2ccc(F)cc12 [Compound 25, 6-Fluoro-2-((3-morpholinopropyl)amino)-N-(2-(pyrrolidin-1-yl)ethyl)quinoline-4-carboxamide]	0.41			5.4	
O=C(NCCN1CCCC1)c1cc(NCCCCN2CCOCC2)nc2ccc(Cl)cc12 [Compound 27, 6-Chloro-2-((4-morpholinobutyl)amino)-N-(2-(pyrrolidin-1-yl)ethyl)quinoline-4-carboxamide]	0.51			6.2	17 fold
